Assay results from US20230037975A1, “USE OF C[…] IN ORAL CARE COMPOSITIONS TO INHIBIT THE GROWTH OF P. GINGIVALIS” (Demetrix, Inc., priority 2021, published 2023).
Converted amounts (≈) assume the structure as drawn. Where two headings read alike, the source gives them in different places.

System: Porphyromonas gingivalis
Experiment: minimum inhibitory concentration (MIC) assay against P. gingivalis
Type: cell-based
Protocol: To determine the ability of the cannabinoid compounds described herein to reduce, or eliminate, P. gingivalis a minimum inhibitory concentration (“MIC”) assay was performed. The assay was performed by Charles River Laboratories International (Wilmington, Mass.) in accordance with industry standards.

[1] = Porphyromonas gingivalis; against P. gingivalis; Table 1; read-out: MIC
[2] = Porphyromonas gingivalis; read-out: minimum inhibitory concentration (MIC) against P. gingivalis
[3] = Porphyromonas gingivalis, read-out: minimum inhibitory concentration (MIC) against P. gingivalis

| Compound | MIC [1] | MIC [2] | minimum inhibitory concentration (MIC) against P. gingivalis | MIC (against P. gingivalis; Table 1) | MIC [3] |
| --- | --- | --- | --- | --- | --- |
| CCCCCc1cc(O)c2c(c1)OC(C)(CCC=C(C)C)C=C2 (stereo not drawn) [CBC, cannabichromene] | 1.56 µg/mL (≈ 4.96 µM) | 1.56 µg/mL (≈ 4.96 µM) | – | – | – |
| CCCCCc1cc2c(c(O)c1C(=O)O)C=CC(C)(CCC=C(C)C)O2 (stereo not drawn) [CBCA, cannabichromenic acid] | – | – | 3.125 µg/mL (≈ 8.72 µM) | 3.125 µg/mL (≈ 8.72 µM) | – |
| C=C(C)[C@@H]1CCC(C)=C[C@H]1c1c(O)cc(CCCCC)cc1O [CBD, cannabidol] | – | – | 3.125 µg/mL (≈ 9.94 µM) | 3.125 µg/mL (≈ 9.94 µM) | – |
| C=C(C)[C@@H]1CCC(C)=C[C@H]1c1c(O)cc(C)cc1O [CBD-C1, Cannabidiorcol] | – | – | 100 µg/mL (≈ 387 µM) | 100 µg/mL (≈ 387 µM) | – |
| C=C(C)[C@@H]1CCC(C)=C[C@H]1c1c(O)cc(CC)cc1O [CBD-C2, Cannabidol-C2] | – | – | 6.25 µg/mL (≈ 22.9 µM) | 6.25 µg/mL (≈ 22.9 µM) | – |
| C=C(C)[C@@H]1CCC(C)=C[C@H]1c1c(O)cc(CCCC)cc1O [CBD-C4, cannabidol-C4] | – | – | 3.125 µg/mL (≈ 10.4 µM) | 3.125 µg/mL (≈ 10.4 µM) | – |
| C=C(C)[C@@H]1CCC(C)=C[C@H]1c1c(O)cc(CCCCC)c(C(=O)O)c1O [CBDA, cannabidiolic acid] | 0.39 µg/mL (≈ 1.09 µM) | – | – | – | < 1 µg/mL |
| C=C(C)[C@@H]1CCC(C)=C[C@H]1c1c(O)cc(CCC)cc1O [CBDV, cannabidivarin] | 3.12 µg/mL (≈ 10.9 µM) | 3.12 µg/mL (≈ 10.9 µM) | – | – | – |
| C=C(C)[C@@H]1CCC(C)=C[C@H]1c1c(O)cc(CCC)c(C(=O)O)c1O [CBDVA, cannabidivarinic acid] | – | – | 25 µg/mL (≈ 75.7 µM) | 25 µg/mL (≈ 75.7 µM) | – |
| CCCCCc1cc(O)c(C/C=C(\C)CCC=C(C)C)c(O)c1 [CBG, cannabigerol] | 0.78 µg/mL (≈ 2.46 µM) | – | – | – | < 1 µg/mL |
| CCCCc1cc(O)c(CC=C(C)CCC=C(C)C)c(O)c1 [CBG-C4, cannabigerol butyl] | – | – | 3.125 µg/mL (≈ 10.3 µM) | 3.125 µg/mL (≈ 10.3 µM) | – |
| CCCCCc1cc(O)c(C/C=C(\C)CCC=C(C)C)c(O)c1C(=O)O [CBGA, cannabigerolic acid] | ≤ 0.097 µg/mL | – | – | – | < 1 µg/mL |
| CCCCc1cc(O)c(C/C=C(\C)CCC=C(C)C)c(O)c1C(=O)O [CBGA-C4, cannabigerolic acid butyl] | – | – | 6.25 µg/mL (≈ 18 µM) | 6.25 µg/mL (≈ 18 µM) | – |
| CCCc1cc(O)c(C/C=C(\C)CCC=C(C)C)c(O)c1 [CBGV, cannabigerivarin] | – | – | 3.125 µg/mL (≈ 10.8 µM) | 3.125 µg/mL (≈ 10.8 µM) | – |
| CCCc1cc(O)c(C/C=C(\C)CCC=C(C)C)c(O)c1C(=O)O [CBGVA, cannabigerovarinic acid] | – | – | 25 µg/mL (≈ 75.2 µM) | 25 µg/mL (≈ 75.2 µM) | – |
| CCCCCc1cc(O)c2c(c1)OC1(C)CCC3C1C2C3(C)C (stereo not drawn) [CBL, cannabicyclol] | > 200 µg/mL | > 200 µg/mL | – | – | – |
| CCCCCc1cc2c(c(O)c1C(=O)O)C1C3C(CCC3(C)O2)C1(C)C (stereo not drawn) [CBLA, cannabicyclolic acid] | – | – | 3.125 µg/mL (≈ 8.72 µM) | 3.125 µg/mL (≈ 8.72 µM) | – |
| CCCCCc1cc(O)c2c(c1)OC(C)(C)c1ccc(C)cc1-2 [CBN, cannabinol] | 3.12 µg/mL (≈ 10.1 µM) | 3.12 µg/mL (≈ 10.1 µM) | – | – | – |
| CCCCCc1cc2c(c(O)c1C(=O)O)-c1cc(C)ccc1C(C)(C)O2 [CBNA, cannabinolic acid] | – | – | 3.125 µg/mL (≈ 8.82 µM) | 3.125 µg/mL (≈ 8.82 µM) | – |
| (+)-cannabidiol [(+)-CBD] | – | – | – | 0.78 µg/mL | – |
